The values below come from ChEMBL document CHEMBL4706618, “Discovery of lysosome-targeted covalent anticancer agents based on isosteviol skeleton” (Eur J Med Chem, 2021).

This data set in a line: GSH reactivity in pH 7.4 sodium phosphate deuterium oxide buffer assessed as half life in presence of glutathione measured up to 6 hrs by 1H NMR analysis. The data set is classed as ADME. The conditions noted are these: sodium phosphate deuterium oxide buffer with glutathione.

A word on the half-life: it is the time needed for the level to fall by half in the phase considered. As to `C=C1C(=O)C=C[C@]2(C)[C@@H]1CC[C@@]13C/C(=N\OC)[C@@](C)(CC[C@H]12)C3`, the half-life is 30 min.
